What all share (format): biochemical
The target in test [1] is EGFR (D770_N771insNPG) (Homo sapiens (Human), UniProt P00533, INS770NPG). In words: HotSpot radiometric kinase assay, EGFR (D770_N771insNPG). As to conditions: 10 μM ATP, read-out: EGFR (Δ770_N771insNPG) IC50. The method, then: (§1) Biochemical Assays for Inhibition of Wild-Type and Mutant EGFRs
(§2) Briefly, specific kinase/substrate pairs along with required cofactors were prepared in reaction buffer; 20 mM Hepes pH 7.5, 10 mM […], 1 mM EGTA, 0.02% Brij35, 0.02 mg/ml BSA, 0.1 mM Na3VO4, 2 mM DTT, 1% DMSO. Compounds were delivered into the reaction, followed […] later by addition of a mixture of ATP (Sigma, St. Louis MO) and ^33P ATP (Perkin Elmer, Waltham MA) to a final concentration of 10 μM. Reactions were carried out at room temperature for 120 min, followed by spotting of the reactions onto P81 ion exchange filter paper (Whatman Inc., Piscataway, NJ). Unbound phosphate was removed by extensive washing of filters in 0.75% phosphoric acid. […] IC50 values and curve fits were obtained using Prism (GraphPad Software).

Test [2] has as its target EGFR Δ746-750 mutant (Homo sapiens (Human), UniProt P00533, DEL746-750). In words: HotSpot radiometric kinase assay, EGFR Δ746-750 mutant. As to conditions: 10 μM ATP. The method, then:
as §1, §2

Test [3] concerns the target EGFR Δ746-750/C797S mutant (Homo sapiens (Human), UniProt P00533, C797S/DEL746-750). In words: HotSpot radiometric kinase assay, EGFR Δ746-750/C797S mutant. The settings on record: 10 μM ATP. As to the method:
as §1, §2

Test [4] addresses EGFR L858R/T790M/C797S mutant (Homo sapiens (Human), UniProt P00533, C797S/L858R/T790M). In words: HotSpot radiometric kinase assay, EGFR L858R/T790M/C797S mutant. As to conditions: 10 μM ATP. The method, then:
as §1, §2

The target of test [5] is EGFR WT (Homo sapiens (Human), UniProt P00533). In words: HotSpot radiometric kinase assay (Reaction Biology), EGFR WT. As to conditions: 10 μM ATP. As to the method: as §1, §2
Test [6] has as its target EGFR L858R mutant (Homo sapiens (Human), UniProt P00533, L858R). In words: HotSpot radiometric kinase assay, EGFR L858R mutant. The settings on record: 10 μM ATP. As to the method:
as §1, §2

Our source for the IC50 values is US20250353864A1, “INDAZOLE CONTAINING MACROCYCLES AND THEIR USE” (BLOSSOMHILL THERAPEUTICS, INC., priority 2022, published 2025).

The structures appear in SMILES notation. Bounds are passed on as bounds.

EGFR WT, sequence (P00533 25-1210): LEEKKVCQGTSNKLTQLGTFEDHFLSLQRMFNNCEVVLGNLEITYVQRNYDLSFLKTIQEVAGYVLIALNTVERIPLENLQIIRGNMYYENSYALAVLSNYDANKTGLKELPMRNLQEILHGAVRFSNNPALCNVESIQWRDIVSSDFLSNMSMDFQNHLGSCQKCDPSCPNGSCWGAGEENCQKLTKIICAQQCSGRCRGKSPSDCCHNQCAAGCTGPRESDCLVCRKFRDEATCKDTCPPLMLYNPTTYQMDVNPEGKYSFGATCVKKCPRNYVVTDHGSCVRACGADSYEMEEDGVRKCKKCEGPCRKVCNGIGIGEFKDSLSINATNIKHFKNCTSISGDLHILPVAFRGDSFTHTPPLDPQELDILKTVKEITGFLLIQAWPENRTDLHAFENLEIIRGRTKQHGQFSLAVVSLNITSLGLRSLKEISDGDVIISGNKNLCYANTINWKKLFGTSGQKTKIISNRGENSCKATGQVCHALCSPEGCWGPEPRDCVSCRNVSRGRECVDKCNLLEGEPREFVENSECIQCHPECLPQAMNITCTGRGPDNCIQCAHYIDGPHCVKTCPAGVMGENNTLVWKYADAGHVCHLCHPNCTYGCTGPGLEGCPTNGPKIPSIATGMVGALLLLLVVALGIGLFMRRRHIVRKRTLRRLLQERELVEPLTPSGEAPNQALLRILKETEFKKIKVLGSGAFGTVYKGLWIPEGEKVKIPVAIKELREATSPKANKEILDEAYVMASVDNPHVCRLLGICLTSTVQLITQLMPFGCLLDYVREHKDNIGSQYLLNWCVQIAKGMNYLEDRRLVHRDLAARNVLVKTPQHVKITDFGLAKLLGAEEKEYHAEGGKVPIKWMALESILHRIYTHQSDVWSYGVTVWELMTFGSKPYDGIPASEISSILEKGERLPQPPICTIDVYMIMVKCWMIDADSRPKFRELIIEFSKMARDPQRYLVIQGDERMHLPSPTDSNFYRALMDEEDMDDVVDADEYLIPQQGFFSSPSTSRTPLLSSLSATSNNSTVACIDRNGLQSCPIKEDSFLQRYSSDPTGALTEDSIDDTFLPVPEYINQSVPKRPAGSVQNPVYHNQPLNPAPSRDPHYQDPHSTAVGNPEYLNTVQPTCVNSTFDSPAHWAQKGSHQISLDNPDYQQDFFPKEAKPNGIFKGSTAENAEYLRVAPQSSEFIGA
EGFR L858R/T790M/C797S mutant, sequence (P00533 25-1210 T790M/C797S/L858R): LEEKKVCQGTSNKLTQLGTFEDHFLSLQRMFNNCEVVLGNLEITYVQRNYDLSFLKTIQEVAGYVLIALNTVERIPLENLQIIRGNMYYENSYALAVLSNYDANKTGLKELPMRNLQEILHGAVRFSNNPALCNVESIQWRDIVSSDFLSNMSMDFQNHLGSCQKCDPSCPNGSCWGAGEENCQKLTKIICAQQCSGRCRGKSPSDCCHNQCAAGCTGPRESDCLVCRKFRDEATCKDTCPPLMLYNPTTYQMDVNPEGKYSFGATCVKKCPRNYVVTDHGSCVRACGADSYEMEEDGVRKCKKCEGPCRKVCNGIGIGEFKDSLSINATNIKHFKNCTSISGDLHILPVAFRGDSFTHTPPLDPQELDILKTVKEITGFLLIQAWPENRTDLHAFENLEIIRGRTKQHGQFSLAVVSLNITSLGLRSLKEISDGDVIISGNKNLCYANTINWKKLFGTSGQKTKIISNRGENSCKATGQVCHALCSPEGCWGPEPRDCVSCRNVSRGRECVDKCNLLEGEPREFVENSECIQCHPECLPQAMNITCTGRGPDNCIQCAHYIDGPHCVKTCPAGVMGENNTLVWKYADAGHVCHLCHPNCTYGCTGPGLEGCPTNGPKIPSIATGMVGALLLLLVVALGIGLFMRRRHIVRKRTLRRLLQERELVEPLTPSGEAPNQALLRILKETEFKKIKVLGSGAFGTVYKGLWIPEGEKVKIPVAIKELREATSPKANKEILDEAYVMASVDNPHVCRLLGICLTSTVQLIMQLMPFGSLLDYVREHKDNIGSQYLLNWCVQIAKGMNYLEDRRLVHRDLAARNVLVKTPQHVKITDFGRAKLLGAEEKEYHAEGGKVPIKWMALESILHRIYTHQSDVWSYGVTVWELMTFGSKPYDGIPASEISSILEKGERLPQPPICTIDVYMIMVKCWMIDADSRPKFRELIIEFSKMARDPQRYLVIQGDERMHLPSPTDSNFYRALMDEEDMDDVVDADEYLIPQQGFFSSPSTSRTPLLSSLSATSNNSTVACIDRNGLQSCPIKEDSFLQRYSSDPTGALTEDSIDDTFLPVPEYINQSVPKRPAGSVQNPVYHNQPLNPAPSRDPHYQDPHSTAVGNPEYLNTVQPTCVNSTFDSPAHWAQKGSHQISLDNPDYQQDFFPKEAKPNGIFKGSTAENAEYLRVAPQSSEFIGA
EGFR Δ746-750/C797S mutant, sequence (P00533 other isoform, or with tags, fused parts or gaps C797S/del 1-668/del 746-750 limits assumed): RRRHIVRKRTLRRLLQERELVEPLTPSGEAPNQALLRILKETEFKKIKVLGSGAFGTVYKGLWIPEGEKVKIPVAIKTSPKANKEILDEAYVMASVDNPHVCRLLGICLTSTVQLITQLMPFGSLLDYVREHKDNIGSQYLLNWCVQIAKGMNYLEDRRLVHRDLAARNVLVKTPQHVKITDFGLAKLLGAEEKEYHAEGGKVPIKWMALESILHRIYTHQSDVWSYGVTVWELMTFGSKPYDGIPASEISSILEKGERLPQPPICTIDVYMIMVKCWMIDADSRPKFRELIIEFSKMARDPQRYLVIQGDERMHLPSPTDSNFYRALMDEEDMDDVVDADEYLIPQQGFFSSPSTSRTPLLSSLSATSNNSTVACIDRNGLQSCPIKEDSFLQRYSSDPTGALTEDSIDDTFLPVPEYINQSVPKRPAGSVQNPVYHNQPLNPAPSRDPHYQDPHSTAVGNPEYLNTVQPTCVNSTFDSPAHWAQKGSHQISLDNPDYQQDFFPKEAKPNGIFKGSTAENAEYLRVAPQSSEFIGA
EGFR Δ746-750 mutant, sequence (P00533 other isoform, or with tags, fused parts or gaps del 1-668/del 746-750 limits assumed): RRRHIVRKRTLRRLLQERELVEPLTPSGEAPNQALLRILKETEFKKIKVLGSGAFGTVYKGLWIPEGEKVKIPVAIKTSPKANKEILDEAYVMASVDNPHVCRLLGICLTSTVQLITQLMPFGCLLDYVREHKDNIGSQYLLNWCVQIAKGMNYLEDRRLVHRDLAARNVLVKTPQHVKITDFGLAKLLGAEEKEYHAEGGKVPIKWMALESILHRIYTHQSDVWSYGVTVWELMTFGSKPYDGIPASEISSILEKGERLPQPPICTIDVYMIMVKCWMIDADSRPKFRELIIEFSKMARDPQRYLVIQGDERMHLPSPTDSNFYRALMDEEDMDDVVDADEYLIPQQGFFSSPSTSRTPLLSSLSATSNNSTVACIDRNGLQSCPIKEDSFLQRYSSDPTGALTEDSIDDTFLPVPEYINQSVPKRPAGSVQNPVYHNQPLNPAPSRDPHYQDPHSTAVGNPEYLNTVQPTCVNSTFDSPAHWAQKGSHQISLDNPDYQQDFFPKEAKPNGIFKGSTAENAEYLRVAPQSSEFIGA
EGFR L858R mutant, sequence (P00533 25-1210 L858R): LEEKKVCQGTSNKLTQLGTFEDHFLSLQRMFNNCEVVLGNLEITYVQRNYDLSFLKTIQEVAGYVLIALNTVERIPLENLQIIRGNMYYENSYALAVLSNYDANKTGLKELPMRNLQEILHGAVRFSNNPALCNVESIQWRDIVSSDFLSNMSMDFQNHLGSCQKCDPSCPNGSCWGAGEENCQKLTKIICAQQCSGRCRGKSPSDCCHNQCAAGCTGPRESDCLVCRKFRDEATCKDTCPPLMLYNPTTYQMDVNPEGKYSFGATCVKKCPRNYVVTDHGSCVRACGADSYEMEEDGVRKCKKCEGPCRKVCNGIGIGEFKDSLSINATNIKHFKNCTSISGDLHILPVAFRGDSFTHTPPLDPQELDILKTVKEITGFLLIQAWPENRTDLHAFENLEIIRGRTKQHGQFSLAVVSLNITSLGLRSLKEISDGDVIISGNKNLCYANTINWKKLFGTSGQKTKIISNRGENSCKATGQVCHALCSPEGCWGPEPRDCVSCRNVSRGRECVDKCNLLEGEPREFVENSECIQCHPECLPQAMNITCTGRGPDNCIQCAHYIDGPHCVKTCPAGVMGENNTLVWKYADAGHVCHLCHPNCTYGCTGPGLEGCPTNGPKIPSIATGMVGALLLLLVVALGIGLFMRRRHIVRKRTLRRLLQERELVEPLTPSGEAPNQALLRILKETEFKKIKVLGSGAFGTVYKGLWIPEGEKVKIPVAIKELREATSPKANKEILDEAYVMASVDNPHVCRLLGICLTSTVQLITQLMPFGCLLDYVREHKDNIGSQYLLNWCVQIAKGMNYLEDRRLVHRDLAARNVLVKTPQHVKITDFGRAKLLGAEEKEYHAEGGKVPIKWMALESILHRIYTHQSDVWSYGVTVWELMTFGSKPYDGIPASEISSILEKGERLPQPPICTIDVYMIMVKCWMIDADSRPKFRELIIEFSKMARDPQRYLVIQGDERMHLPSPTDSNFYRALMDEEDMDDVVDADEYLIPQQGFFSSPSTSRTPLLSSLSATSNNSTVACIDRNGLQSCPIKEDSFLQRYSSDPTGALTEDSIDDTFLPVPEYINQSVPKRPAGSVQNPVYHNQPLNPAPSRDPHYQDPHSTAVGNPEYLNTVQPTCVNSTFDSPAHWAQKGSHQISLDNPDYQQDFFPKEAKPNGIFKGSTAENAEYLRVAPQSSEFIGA

The IC50 is the concentration at which inhibition is half-maximal. As to `Cc1c2c(nn1[C@H]1CCN(C)C[C@@H]1O)OCCCOc1c(cnn1C)-c1ccc3[nH]nc(c3c1)/C=C/2` (racemic) [Example 83, (rac)-4-[(17E)-8,16-dimethyl-2,8,11,12-tetrahydro-10H,15H-3,5-etheno[1,5]dioxacyclopentadecino[10,11-c:15,14-c′:6,7-c″]tripyrazol-15-yl]-1-methylpiperidin-3-ol], the IC50 in test [1] stood at 55.4 nM; in test [2], 34.6 nM; in test [3], 31.3 nM.

For `Cc1nn(C)c2c1/C=C/c1n[nH]c3ccc(cc13)-c1cnn(C)c1CN(C)C[C@H](C)O2` (single isomer, unassigned) [Example 97], the IC50 turned out to be 304 nM in test [1], 221 nM in test [2] and 101 nM in test [3].

`CCOc1nn(CCO)c2c1/C=C/c1n[nH]c3ccc(cc13)-c1cnn(C)c1O[C@H](C)[C@H]1CCCN1C2` (single isomer, unassigned) [compound 241]: the figures for the IC50 in test [1], in test [2] and in test [3] were 0.18 nM, 0.13 nM and 0.31 nM, respectively.

In the case of `Cc1c2c(nn1C)OCCCOc1c(cnn1C)-c1ccc3[nH]nc(c3c1)/C=C/2` [Ex. 9, (17E)-8,15,16-trimethyl-2,11,12,15-tetrahydro-8H,10H-3,5-etheno[1,5]dioxacyclopentadecino[10,11-c:15,14-c′:6,7-c″]tripyrazole], the IC50 came out at 945 nM in test [1]; 27.2 nM in test [4]; 284 nM in test [2]; 1170 nM in test [5]; 349 nM in test [6].

On to `CCc1nn(C)c2c1/C=C/c1n[nH]c3ccc(cc13)-c1cnn(C)c1OCCCO2` [Ex. 10, (17E)-16-ethyl-8,14-dimethyl-2,11,12,14-tetrahydro-8H,10H-3,5-etheno[1,5]dioxacyclopentadecino[10,11-c:15,14-c′:6,7-c″]tripyrazole], for which the IC50 in test [1] amounted to 713 nM; in test [2], 74.3 nM.

With `CCc1nn(C)c2c1/C=C/c1n[nH]c3ccc(cc13)-c1cnn(C)c1OCC[C@H](C)O2` [Ex. 14, (12S,17E)-16-ethyl-8,12,14-trimethyl-2,11,12,14-tetrahydro-8H,10H-3,5-etheno[1,5]dioxacyclopentadecino[10,11-c:15,14-c′:6,7-c″]tripyrazole], the IC50 in test [1] is 312 nM; in test [4], 19.5 nM; in test [2], 124 nM; in test [5], 339 nM; in test [6] it was 63.8 nM; in test [3], 34.7 nM.

As to `Cn1ncc2c1OCCCCOc1ccccc1/C=C/c1n[nH]c3ccc-2cc13` [Ex. 16, (11E)-1-methyl-18,19,20,21-tetrahydro-1H,8H-10,7,4-(ethan[1]yl[1,2]diylidene)pyrazolo[3,4-g][1,6,13,14]benzodioxadiazacyclononad ecine], the IC50 worked out at 521 nM in test [1]; 48.4 nM in test [4]; 132 nM in test [2]; 523 nM in test [5]; 49.2 nM in test [6].

As for `Cc1c2c(nn1CCO)OCCCOc1c(cnn1C)-c1ccc3[nH]nc(c3c1)/C=C/2` [Ex. 24, 2-[(17E)-8,16-dimethyl-2,8,11,12-tetrahydro-10H,15H-3,5-etheno[1,5]dioxacyclopentadecino[10,11-c:15,14-c′:6,7-c″]tripyrazol-15-yl]ethan-1-ol], the IC50 in test [1] was 1770 nM; in test [4], 315 nM; in test [2], 755 nM; in test [5], above 1000 nM; in test [6] it was above 1000 nM.

Regarding `Cc1c2c(nn1CC(C)(C)O)OCCCOc1c(cnn1C)-c1ccc3[nH]nc(c3c1)/C=C/2` [Ex. 28, 1-[(17E)-8,16-dimethyl-2,8,11,12-tetrahydro-10H,15H-3,5-etheno[1,5]dioxacyclopentadecino[10,11-c:15,14-c′:6,7-c″ ]tripyrazol-15-yl]-2-methylpropan-2-ol], the IC50 was above 1000 nM in test [1]; 578 nM in test [4]; 819 nM in test [2]; above 1000 nM in test [5]; 1000 nM in test [6].

For `Cc1nn(CCN2CCCC2)c2c1/C=C/c1n[nH]c3ccc(cc13)-c1cnn(C)c1OCCCO2` [Ex. 32, (17E)-8,16-dimethyl-14-[2-(pyrrolidin-1-yl)ethyl]-2,11,12,14-tetrahydro-8H,10H-3,5-etheno[1,5]dioxacyclopentadecino[10,11-c:15,14-c′:6,7-c″ ]tripyrazole], the IC50 amounted to 457 nM in test [1]; 37.3 nM in test [4]; 155 nM in test [2]; 1260 nM in test [5]; 242 nM in test [6].

Turning to `Cc1ccc2c(n1)/C=C/c1n[nH]c3ccc(cc13)-c1cnn(C)c1O[C@@H](C)CCO2` [Ex. 39, (10S,18E)-8,10,16-trimethyl-2,8,11,12-tetrahydro-10H-3,5-ethenodipyrazolo[3′,4′:10,11;4″,3″:14,15] [1,5]dioxacyclopentadecino[7,6-b]pyridine], the IC50 amounted to 1440 nM in test [1] and 176 nM in test [2].

In test [4], `CNC(=O)c1cnc2c(c1)/C=C/c1n[nH]c3ccc(cc13)-c1cnn(C)c1COCCO2` [Example 3, (18E)-N,8-dimethyl-8,9,11,12-tetrahydro-2H-3,5-ethenodipyrazolo[3′,4′:9,10;4″,3″:13,14] [1,4]dioxacyclopentadecino[5,6-b]pyridine-16-carboxamide] yielded an IC50 of 863 nM.

As for `Cc1nn(CC(C)(C)O)c2c1/C=C/c1n[nH]c3ccc(cc13)-c1cnn(C)c1OCCCO2` [Example 30, 1-[(17E)-8,16-dimethyl-2,8,11,12-tetrahydro-10H,14H-3,5-etheno[1,5]dioxacyclopentadecino[10,11-c:15,14-c′:6,7-c″]tripyrazol-14-yl]-2-methylpropan-2-ol], the IC50 was determined as 983 nM in test [1]; 36.8 nM in test [4]; 217 nM in test [2]; 1300 nM in test [5]; 268 nM in test [6].

As for `CC(=O)Cn1nc(C)c2c1OCCCOc1c(cnn1C)-c1ccc3[nH]nc(c3c1)/C=C/2` [Example 31, 1-[(17E)-8,16-dimethyl-2,8,11,12-tetrahydro-10H,14H-3,5-etheno[1,5]dioxacyclopentadecino[10,11-c:15,14-c′:6,7-c″]tripyrazol-14-yl]propan-2-one], the IC50 in test [1] is 731 nM; in test [4] it was 4.93 nM; in test [2] it was 58.7 nM; in test [5], 927 nM; in test [6], 67.7 nM.

For `Cc1c2c(nn1CCN1CCCC1)OCCCOc1c(cnn1C)-c1ccc3[nH]nc(c3c1)/C=C/2` [Example 34, (17E)-8,16-dimethyl-15-[2-(pyrrolidin-1-yl)ethyl]-2,11,12,15-tetrahydro-8H,10H-3,5-etheno[1,5]dioxacyclopentadecino[10,11-c:15,14-c′:6,7-c″]tripyrazole], the IC50 in test [1] was 191 nM; in test [4], 40.9 nM; in test [2] it was 154 nM; in test [5] it was 326 nM; in test [6] it was 114 nM.

As for `Cc1nn(C)c2c1/C=C/c1n[nH]c3ccc(cc13)-c1c(C)nn(C)c1OCCN(C)C2` [Example 47, (17E)-6,8,12,14,16-pentamethyl-2,10,11,12,13,14-hexahydro-8H-3,5-ethenotripyrazolo[3,4-f:3′,4′-j:4″,3″- n][1,4]oxazacyclopentadecine], the IC50 is above 1000 nM in test [1], 488 nM in test [2] and 944 nM in test [3].

As to `Cc1c2c(nn1CCN1CCCC1)OCCOC(C)c1c(cnn1C)-c1ccc3[nH]nc(c3c1)/C=C/2` (stereo not drawn) [Example 84, (17E)-8,9,16-trimethyl-15-[2-(pyrrolidin-1-yl)ethyl]-2,8,9,11,12,15-hexahydro-3,5-etheno[1,4]dioxacyclopentadecino[11,10-c:15,14-c′:6,7-c″]tripyrazole], the values for the IC50 in test [1], in test [2] and in test [3] were 551 nM, 381 nM and 130 nM, respectively.

As to `Cc1c2c(nn1CCN1CCCC1)CN(C)C[C@H](C)Oc1c(cnn1C)-c1ccc3[nH]nc(c3c1)/C=C/2` [Example 89, (10S,17E)-8,10,12,16-tetramethyl-15-[2-(pyrrolidin-1-yl)ethyl]-2,10,11,12,13,15-hexahydro-8H-3,5-ethenotripyrazolo[3,4-f:3′,4′-j:4″,3″-n][1,4]oxazacyclopentadecine], the IC50 was 191 nM in test [1], 19.7 nM in test [2] and 6.67 nM in test [3].

Regarding `CCOc1nn(CCO)c2c1/C=C/c1n[nH]c3ccc(cc13)-c1cnn(C)c1OC1CCCN(C2)C1C` (stereo not drawn) [Example 242, 2-[(19E)-18-ethoxy-8,21-dimethyl-2,10,11,12,13,15-hexahydro-3,5-etheno-10,14-methanotripyrazolo[3,4-h:3′,4′-l:4″,3″-p][1,6]oxazacycloheptadecin-16(8H)-yl]ethan-1-ol], the IC50 in test [1] worked out at 304 nM; in test [2] it was 55.5 nM; in test [3], 40.3 nM.
